Source: patent US10800791B2, “Triazole ACC inhibitors and uses thereof” (Gilead Apollo, LLC, priority 2015, dated 2020)
pIC50: −log10 of the molar value. Converted amounts (≈) assume the structure as drawn. Like-named read-outs stand apart in the source and are kept apart here.

Key:
C. parapsilosis = experiment: Antifungal Activity Assay (broth microtiter MIC), C. parapsilosis; format: cell-based, Candida parapsilosis; conditions: Lodderomyces parapsilosis, ATCC22019, 48 h
Outline: (§1)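 Broth microdilution per CLSI M27-A3 in RPMI 1640+MOPS, inoculum 2.5×10^3 CFU/mL final from overnight Sabouraud dextrose agar cultures at 35° C. Compounds diluted from DMSO stock to 128 μg/mL in water. MIC read visually versus growth control at 48 h.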

C. albicans = experiment: Antifungal Activity Assay (broth microtiter MIC), C. albicans; format: cell-based, Candida albicans; conditions: Candida albicans, ATCC90028, 48 h
Outline: as §1

Botrtyis cinerea (Bc) = experiment: Growth inhibition assay of fungal pathogens, Bc; format: cell-based; conditions: 48 h
Outline: (§2)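 Inhibition percentages reflect 48 h OD600 and visual scores relative to a 2% DMSO control. Test concentrations were 50, 10, 2 ppm or 2, 0.4, 0.08 ppm final, applied to spores in 17% V8 medium.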

Diplodia maydis (Dm) = experiment: Growth inhibition assay of fungal pathogens, Dm; format: cell-based; conditions: Stenocarpella maydis, 48 h
Outline: as §2

[1] = test system: Collectotrichum graminicola (Cg); experiment: Growth inhibition assay of fungal pathogens, Cg; format: cell-based; conditions: 48 h
Outline: as §2

human (hACC2) = human (hACC2) (Homo sapiens, UniProt O00763); experiment: In vitro ACC inhibition assay (ADP-Glo), hACC2; format: biochemical; conditions: 5 nM ACC2, 20 μM ATP, 20 μM acetyl-CoA
Protocol: The detailed procedure is as follows. […] 10 μL ADP glo reagent was added. […] 20 μL kinase detection reagent was added.

Septoria tritici (St) = experiment: Growth inhibition assay of fungal pathogens, St; format: cell-based; conditions: Zymoseptoria tritici, 48 h
Outline: as §2

[2] = test system: Phytophthora capsici (Pc); experiment: Growth inhibition assay of fungal pathogens, Pc; format: cell-based; conditions: 48 h
Outline: as §2

fungal (fACC2) = fungal (fACC2) (UniProt Q00955); conditions: read-out: fACC2 (in vitro ACC2 Inhibition Assay, IC50), ADP-Glo, 5 nM ACC2, 20 μM ATP, 20 μM acetyl-CoA
Rhizoctonia solani (Rs) = experiment: Growth inhibition assay of fungal pathogens, Rs; format: cell-based; conditions: 48 h
[3] = Table 3a, ATCC 22019, 3 replicates, MIC recorded at 48 h, read-out: MIC, C. parapsilosis ATCC 22019
[4] = Table 3b (additional results), ATCC 22019, 3 replicates, MIC recorded at 48 h, read-out: MIC, C. parapsilosis ATCC 22019
[5] = Table 3a, ATCC 90028, 3 replicates, MIC recorded at 48 h, read-out: MIC, C. albicans ATCC 90028
[6] = Table 3b (additional results), ATCC 90028, 3 replicates, MIC recorded at 48 h, read-out: MIC, C. albicans ATCC 90028
[7] = Botrtyis cinerea, growth inhibition at 48 hours vs 2% DMSO control, read-out: Concentration at 90% Inhibition Bc
[8] = Botrtyis cinerea, growth inhibition vs 2% DMSO control at 48 hours, read-out: Concentration at 90% Inhibition Bc
[9] = Diplodia maydis, growth inhibition at 48 hours vs 2% DMSO control, read-out: Concentration at 90% Inhibition Dm
[10] = Diplodia maydis, growth inhibition vs 2% DMSO control at 48 hours, read-out: Concentration at 90% Inhibition Dm
[11] = Collectotrichum graminicola, growth inhibition at 48 hours vs 2% DMSO control, read-out: Concentration at 90% Inhibition Cg
[12] = Collectotrichum graminicola, growth inhibition vs 2% DMSO control at 48 hours, read-out: Concentration at 90% Inhibition Cg
[13] = Septoria tritici, growth inhibition at 48 hours vs 2% DMSO control, read-out: Concentration at 90% Inhibition St
[14] = Septoria tritici, growth inhibition vs 2% DMSO control at 48 hours, read-out: Concentration at 90% Inhibition St
[15] = growth inhibition at 48 hours vs 2% DMSO control, read-out: Concentration at 90% Inhibition Pc
[16] = growth inhibition vs 2% DMSO control at 48 hours, read-out: Concentration at 90% Inhibition Pc
[17] = mycelial plugs, growth inhibition at 48 hours vs 2% DMSO control, read-out: Concentration at 90% Inhibition Rs
[18] = mycelial plugs, growth inhibition vs 2% DMSO control at 48 hours, read-out: Concentration at 90% Inhibition Rs

Chain of human (hACC2) (O00763 whole entry): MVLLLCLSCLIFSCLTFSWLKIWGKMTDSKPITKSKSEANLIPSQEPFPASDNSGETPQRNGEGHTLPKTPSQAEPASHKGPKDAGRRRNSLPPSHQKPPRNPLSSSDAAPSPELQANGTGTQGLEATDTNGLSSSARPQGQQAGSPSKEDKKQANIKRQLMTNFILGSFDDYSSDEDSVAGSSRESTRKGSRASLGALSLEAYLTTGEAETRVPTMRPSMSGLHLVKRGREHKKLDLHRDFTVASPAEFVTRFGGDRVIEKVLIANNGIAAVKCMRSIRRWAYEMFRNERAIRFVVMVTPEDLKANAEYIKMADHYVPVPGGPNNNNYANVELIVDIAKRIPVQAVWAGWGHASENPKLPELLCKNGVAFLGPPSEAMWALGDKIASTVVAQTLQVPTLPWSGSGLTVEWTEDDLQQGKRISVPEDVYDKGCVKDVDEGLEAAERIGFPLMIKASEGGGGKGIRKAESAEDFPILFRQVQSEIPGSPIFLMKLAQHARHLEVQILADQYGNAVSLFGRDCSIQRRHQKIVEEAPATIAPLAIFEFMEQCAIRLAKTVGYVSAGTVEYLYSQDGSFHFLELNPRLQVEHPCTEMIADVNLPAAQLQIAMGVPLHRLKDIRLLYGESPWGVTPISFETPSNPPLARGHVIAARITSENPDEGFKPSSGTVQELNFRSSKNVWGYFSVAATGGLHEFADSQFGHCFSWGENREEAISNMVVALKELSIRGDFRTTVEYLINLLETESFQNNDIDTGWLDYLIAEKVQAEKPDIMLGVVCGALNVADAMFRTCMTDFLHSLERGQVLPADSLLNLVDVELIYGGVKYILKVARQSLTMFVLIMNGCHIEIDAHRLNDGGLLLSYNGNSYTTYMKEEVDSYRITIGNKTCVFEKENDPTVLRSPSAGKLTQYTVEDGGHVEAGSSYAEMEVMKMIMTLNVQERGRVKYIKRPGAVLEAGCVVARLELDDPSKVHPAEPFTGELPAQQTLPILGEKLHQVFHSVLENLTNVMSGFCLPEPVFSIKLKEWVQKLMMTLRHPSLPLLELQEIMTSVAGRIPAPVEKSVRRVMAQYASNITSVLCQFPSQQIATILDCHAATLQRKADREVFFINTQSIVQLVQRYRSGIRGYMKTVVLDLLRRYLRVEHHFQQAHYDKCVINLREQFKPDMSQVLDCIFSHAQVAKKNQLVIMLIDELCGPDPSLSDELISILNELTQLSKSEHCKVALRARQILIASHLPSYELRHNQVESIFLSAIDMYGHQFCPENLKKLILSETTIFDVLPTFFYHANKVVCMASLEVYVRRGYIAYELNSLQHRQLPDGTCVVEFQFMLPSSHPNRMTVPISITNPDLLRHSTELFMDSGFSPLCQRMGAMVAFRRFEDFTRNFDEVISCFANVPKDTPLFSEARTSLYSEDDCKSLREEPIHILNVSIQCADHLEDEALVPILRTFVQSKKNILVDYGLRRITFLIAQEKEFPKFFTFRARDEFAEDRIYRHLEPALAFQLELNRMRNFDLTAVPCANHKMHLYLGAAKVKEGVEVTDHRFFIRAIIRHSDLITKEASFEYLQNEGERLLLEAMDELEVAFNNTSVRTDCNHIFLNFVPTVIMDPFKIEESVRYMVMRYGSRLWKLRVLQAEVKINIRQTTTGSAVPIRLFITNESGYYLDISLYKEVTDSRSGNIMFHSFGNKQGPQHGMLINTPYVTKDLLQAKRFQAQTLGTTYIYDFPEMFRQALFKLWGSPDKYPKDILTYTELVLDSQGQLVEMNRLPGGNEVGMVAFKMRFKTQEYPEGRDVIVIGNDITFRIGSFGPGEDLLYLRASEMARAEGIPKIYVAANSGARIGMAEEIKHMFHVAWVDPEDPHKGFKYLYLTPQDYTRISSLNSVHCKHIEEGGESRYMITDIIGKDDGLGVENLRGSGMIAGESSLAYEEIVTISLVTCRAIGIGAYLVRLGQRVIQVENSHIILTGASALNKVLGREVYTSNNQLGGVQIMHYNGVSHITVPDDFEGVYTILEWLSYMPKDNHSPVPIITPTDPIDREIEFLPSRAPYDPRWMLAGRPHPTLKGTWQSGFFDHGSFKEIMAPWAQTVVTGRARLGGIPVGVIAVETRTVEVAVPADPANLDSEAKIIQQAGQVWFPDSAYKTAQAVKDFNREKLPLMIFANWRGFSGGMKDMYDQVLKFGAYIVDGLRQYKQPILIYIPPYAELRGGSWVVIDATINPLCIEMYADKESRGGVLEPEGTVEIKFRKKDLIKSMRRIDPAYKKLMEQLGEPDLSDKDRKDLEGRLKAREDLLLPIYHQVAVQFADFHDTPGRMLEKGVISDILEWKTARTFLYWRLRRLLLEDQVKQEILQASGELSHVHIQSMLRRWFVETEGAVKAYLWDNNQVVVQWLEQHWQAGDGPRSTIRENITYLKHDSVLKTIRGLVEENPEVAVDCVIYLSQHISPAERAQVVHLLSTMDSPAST
Chain of fungal (fACC2) (Q00955 whole entry): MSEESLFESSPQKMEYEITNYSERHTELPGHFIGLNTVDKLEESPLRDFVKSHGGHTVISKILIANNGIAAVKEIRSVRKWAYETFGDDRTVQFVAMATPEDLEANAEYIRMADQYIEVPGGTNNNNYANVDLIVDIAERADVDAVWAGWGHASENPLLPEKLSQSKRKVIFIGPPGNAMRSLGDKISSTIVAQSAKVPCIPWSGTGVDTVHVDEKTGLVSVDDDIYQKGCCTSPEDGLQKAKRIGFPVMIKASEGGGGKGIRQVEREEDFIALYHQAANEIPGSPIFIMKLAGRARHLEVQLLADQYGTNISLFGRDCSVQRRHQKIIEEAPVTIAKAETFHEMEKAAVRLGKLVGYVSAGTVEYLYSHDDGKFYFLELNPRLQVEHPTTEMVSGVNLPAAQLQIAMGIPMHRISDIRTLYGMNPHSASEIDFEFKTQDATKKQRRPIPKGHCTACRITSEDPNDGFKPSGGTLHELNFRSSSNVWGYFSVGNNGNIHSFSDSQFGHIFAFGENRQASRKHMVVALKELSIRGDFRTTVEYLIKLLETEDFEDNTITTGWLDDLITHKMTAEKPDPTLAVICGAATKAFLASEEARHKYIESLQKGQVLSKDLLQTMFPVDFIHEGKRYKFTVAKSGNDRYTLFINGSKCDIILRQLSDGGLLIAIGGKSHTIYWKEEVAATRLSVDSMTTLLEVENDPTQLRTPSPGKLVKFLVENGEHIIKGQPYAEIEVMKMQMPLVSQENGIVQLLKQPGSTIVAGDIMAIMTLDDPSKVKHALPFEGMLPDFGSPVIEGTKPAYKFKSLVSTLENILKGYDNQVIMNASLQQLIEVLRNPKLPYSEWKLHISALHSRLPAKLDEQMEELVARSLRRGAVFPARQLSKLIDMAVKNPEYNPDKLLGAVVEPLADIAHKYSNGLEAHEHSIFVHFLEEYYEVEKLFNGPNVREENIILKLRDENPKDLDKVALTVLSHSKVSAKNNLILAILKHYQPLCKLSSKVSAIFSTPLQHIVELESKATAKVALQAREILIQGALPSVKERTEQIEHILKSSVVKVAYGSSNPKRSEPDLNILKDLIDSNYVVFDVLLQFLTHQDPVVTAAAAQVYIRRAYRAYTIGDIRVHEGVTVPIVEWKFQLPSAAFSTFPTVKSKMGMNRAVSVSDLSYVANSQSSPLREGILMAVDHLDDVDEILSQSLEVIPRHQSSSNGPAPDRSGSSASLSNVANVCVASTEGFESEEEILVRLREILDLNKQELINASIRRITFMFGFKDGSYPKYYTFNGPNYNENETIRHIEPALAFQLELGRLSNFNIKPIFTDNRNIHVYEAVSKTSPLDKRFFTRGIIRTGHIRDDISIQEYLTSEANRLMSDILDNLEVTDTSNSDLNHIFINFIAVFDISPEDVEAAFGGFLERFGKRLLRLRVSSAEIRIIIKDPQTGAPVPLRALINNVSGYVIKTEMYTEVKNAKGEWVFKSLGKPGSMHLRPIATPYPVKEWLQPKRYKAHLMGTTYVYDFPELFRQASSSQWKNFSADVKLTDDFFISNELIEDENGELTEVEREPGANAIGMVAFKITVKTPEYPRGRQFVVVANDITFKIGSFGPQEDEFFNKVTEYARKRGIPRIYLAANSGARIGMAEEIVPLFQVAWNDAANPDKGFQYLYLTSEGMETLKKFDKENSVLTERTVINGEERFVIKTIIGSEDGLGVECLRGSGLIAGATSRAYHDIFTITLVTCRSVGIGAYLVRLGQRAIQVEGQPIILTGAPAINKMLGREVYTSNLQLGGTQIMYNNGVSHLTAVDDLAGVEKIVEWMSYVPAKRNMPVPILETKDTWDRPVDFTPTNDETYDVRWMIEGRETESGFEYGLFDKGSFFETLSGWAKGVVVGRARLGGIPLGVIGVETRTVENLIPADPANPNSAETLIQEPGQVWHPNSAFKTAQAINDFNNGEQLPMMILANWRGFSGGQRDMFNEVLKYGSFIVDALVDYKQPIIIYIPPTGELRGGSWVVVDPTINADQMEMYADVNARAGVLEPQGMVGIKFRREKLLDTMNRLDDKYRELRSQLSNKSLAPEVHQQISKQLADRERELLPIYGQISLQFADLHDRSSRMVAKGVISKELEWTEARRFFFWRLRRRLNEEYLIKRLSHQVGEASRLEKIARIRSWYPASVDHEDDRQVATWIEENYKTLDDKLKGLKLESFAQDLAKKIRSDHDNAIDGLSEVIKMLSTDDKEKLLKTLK

| Structure (SMILES) | MIC (C. parapsilosis; [3]) [µg/mL] | MIC (C. parapsilosis; [4]) [µg/mL] | MIC (C. albicans; [5]) [µg/mL] | MIC (C. albicans; [6]) [µg/mL] | IC90 (Botrtyis cinerea (Bc); [7]) [µg/mL] | IC90 (Botrtyis cinerea (Bc); [8]) [µg/mL] | IC90 (Diplodia maydis (Dm); [9]) [µg/mL] | IC90 (Diplodia maydis (Dm); [10]) [µg/mL] | IC90 [1, 11] [µg/mL] | IC90 [1, 12] [µg/mL] | pIC50 (human (hACC2); Table 2a) | pIC50 (human (hACC2); Table 2b, additional results) | IC90 (Septoria tritici (St); [13]) [µg/mL] | IC90 (Septoria tritici (St); [14]) [µg/mL] | IC90 [2, 15] [µg/mL] | IC90 [2, 16] [µg/mL] | pIC50 (fungal (fACC2); Table 2a) | pIC50 (fungal (fACC2); Table 2b, additional results) | IC90 (Rhizoctonia solani (Rs); [17]) [µg/mL] | IC90 (Rhizoctonia solani (Rs); [18]) [µg/mL] | other results |
| --- | --- | --- | --- | --- | --- | --- | --- | --- | --- | --- | --- | --- | --- | --- | --- | --- | --- | --- | --- | --- | --- |
| COc1ccc(F)cc1[C@H](Cn1c(=O)n(C(C)(C)C(=O)N2CC=CC2)c(=O)c2c(C)c(-n3nccn3)sc21)OC(C)C [Compound I-51, (R)-3-(1-(2,5-dihydro-1H-pyrrol-1-yl)-2-methyl-1-oxopropan-2-yl)-1-(2-(5-fluoro-2-methoxyphenyl)-2-isopropoxyethyl)-5-methyl-6-(2H-1,2,3-triazol-2-yl)thieno[2,3-d]pyrimidine-2,4(1H,3H)-dione] | 1.1 to 2 (≈ 1.84 to 3.35 µM) | > 4.01 | 0.25 to 1 (≈ 0.419 to 1.68 µM) | 1.01 to 2 (≈ 1.69 to 3.35 µM) | 0.4 (≈ 0.67 µM) | 0.4 (≈ 0.67 µM) | 0.08 (≈ 0.134 µM) | 0.08 (≈ 0.134 µM) | 0.08 (≈ 0.134 µM) | 0.08 (≈ 0.134 µM) | 8.00 to 8.30 | 8.00 to 8.30 | 2 (≈ 3.35 µM) | 10 (≈ 16.8 µM) | > 50 | > 50 | 8.30 to 9.00 | 8.30 to 9.00 | 0.4 (≈ 0.67 µM) | 0.4 (≈ 0.67 µM) |  |
| COc1ccc(F)cc1[C@H](Cn1c(=O)n(C(C)(C)C(=O)NCC#N)c(=O)c2c(C)c(-n3nccn3)sc21)OC(C)C [Compound I-52, (R)—N-(cyanomethyl)-2-(1-(2-(5-fluoro-2-methoxyphenyl)-2-isopropoxyethyl)-5-methyl-2,4-dioxo-6-(2H-1,2,3-triazol-2-yl)-1,4-dihydro-thieno[2,3-d]pyrimidin-3(2H)-yl)-2-methylpropanamide] |  |  |  |  |  |  |  |  |  |  | 7.40 to 8.00 | 7.40 to 8.00 |  |  |  |  | 8.30 to 9.00 | 8.30 to 9.00 |  |  | MIC (C. parapsilosis; read-out: MIC, C. parapsilosis ATCC 22019, Table 3a, 3 replicates, MIC recorded at 48 h): 2.1 to 4 µg/mL (≈ 3.6 to 6.85 µM); MIC (C. parapsilosis; read-out: MIC, C. parapsilosis ATCC 22019, Table 3b (additional results), 3 replicates, MIC recorded at 48 h): 2.01 to 4 µg/mL (≈ 3.44 to 6.85 µM); MIC (C. albicans; read-out: MIC, C. albicans ATCC 90028, Table 3a, 3 replicates, MIC recorded at 48 h): 2.1 to 4 µg/mL (≈ 3.6 to 6.85 µM); MIC (C. albicans; read-out: MIC, C. albicans ATCC 90028, Table 3b (additional results), 3 replicates, MIC recorded at 48 h): 1.01 to 2 µg/mL (≈ 1.73 to 3.43 µM); IC90 (Botrtyis cinerea (Bc); read-out: Concentration at 90% Inhibition Bc, Botrtyis cinerea, growth inhibition at 48 hours vs 2% DMSO control): 2 µg/mL (≈ 3.43 µM); IC90 (Botrtyis cinerea (Bc); read-out: Concentration at 90% Inhibition Bc, Botrtyis cinerea, growth inhibition vs 2% DMSO control at 48 hours): 2 µg/mL (≈ 3.43 µM); IC90 (Diplodia maydis (Dm); read-out: Concentration at 90% Inhibition Dm, Diplodia maydis, growth inhibition at 48 hours vs 2% DMSO control): 10 µg/mL (≈ 17.1 µM); IC90 (Diplodia maydis (Dm); read-out: Concentration at 90% Inhibition Dm, Diplodia maydis, growth inhibition vs 2% DMSO control at 48 hours): > 50 µg/mL; IC90 ([1]; read-out: Concentration at 90% Inhibition Cg, Collectotrichum graminicola, growth inhibition at 48 hours vs 2% DMSO control): 10 µg/mL (≈ 17.1 µM); IC90 ([1]; read-out: Concentration at 90% Inhibition Cg, Collectotrichum graminicola, growth inhibition vs 2% DMSO control at 48 hours): > 50 µg/mL; IC90 (Septoria tritici (St); read-out: Concentration at 90% Inhibition St, Septoria tritici, growth inhibition at 48 hours vs 2% DMSO control): > 50 µg/mL; IC90 (Septoria tritici (St); read-out: Concentration at 90% Inhibition St, Septoria tritici, growth inhibition vs 2% DMSO control at 48 hours): > 50 µg/mL; IC90 ([2]; read-out: Concentration at 90% Inhibition Pc, Phytophthora capsici, growth inhibition at 48 hours vs 2% DMSO control): > 50 µg/mL; IC90 ([2]; read-out: Concentration at 90% Inhibition Pc, Phytophthora capsici, growth inhibition vs 2% DMSO control at 48 hours): > 50 µg/mL; IC90 (Rhizoctonia solani (Rs); read-out: Concentration at 90% Inhibition Rs, Rhizoctonia solani, mycelial plugs, growth inhibition at 48 hours vs 2% DMSO control): > 50 µg/mL; IC90 (Rhizoctonia solani (Rs); read-out: Concentration at 90% Inhibition Rs, Rhizoctonia solani, mycelial plugs, growth inhibition vs 2% DMSO control at 48 hours): > 50 µg/mL |
| Cc1c(-n2nccn2)sc2c1c(=O)n(C(C)(C)C(=O)NC(C)C)c(=O)n2C[C@H](OC(C)C)c1cc(F)ccc1OCCO [Compound I-53, (R)-2-(1-(2-(5-fluoro-2-(2-hydroxyethoxy)phenyl)-2-isopropoxyethyl)-5-methyl-2,4-dioxo-6-(2H-1,2,3-triazol-2-yl)-1,4-dihydrothieno[2,3-d]pyrimidin-3(2H)-yl)-N-isopropyl-2-methylpropanamide] | 0.25 to 1 (≈ 0.405 to 1.62 µM) | 1.01 to 2 (≈ 1.64 to 3.24 µM) | 0.25 to 1 (≈ 0.405 to 1.62 µM) | 0.25 to 1 (≈ 0.405 to 1.62 µM) | 0.4 (≈ 0.649 µM) | 0.4 (≈ 0.649 µM) | 0.4 (≈ 0.649 µM) | 0.4 (≈ 0.649 µM) | 0.4 (≈ 0.649 µM) | 0.4 (≈ 0.649 µM) | 7.40 to 8.00 | 7.40 to 8.00 | > 50 | > 50 | > 50 | > 50 | 8.30 to 9.00 | 8.30 to 9.00 | 0.08 (≈ 0.13 µM) | 0.08 (≈ 0.13 µM) |  |
| COCCOc1ccc(F)cc1[C@H](Cn1c(=O)n(C(C)(C)C(=O)NC(C)C)c(=O)c2c(C)c(-n3nccn3)sc21)OC(C)C [Compound I-54, (R)-2-(1-(2-(5-fluoro-2-(2-methoxyethoxy)phenyl)-2-isopropoxyethyl)-5-methyl-2,4-dioxo-6-(2H-1,2,3-triazol-2-yl)-1,4-dihydrothieno[2,3-d]pyrimidin-3(2H)-yl)-N-isopropyl-2-methylpropanamide] | 0.25 to 1 (≈ 0.396 to 1.59 µM) | 1.01 to 2 (≈ 1.6 to 3.17 µM) | 0.25 to 1 (≈ 0.396 to 1.59 µM) | 0.25 to 1 (≈ 0.396 to 1.59 µM) | 0.4 (≈ 0.634 µM) | 0.4 (≈ 0.634 µM) | 0.08 (≈ 0.127 µM) | 0.08 (≈ 0.127 µM) | 0.4 (≈ 0.634 µM) | 0.4 (≈ 0.634 µM) | 7.40 to 8.00 | 7.40 to 8.00 | > 50 | > 50 | > 50 | > 50 | 8.30 to 9.00 | 8.30 to 9.00 | 0.4 (≈ 0.634 µM) | 0.4 (≈ 0.634 µM) |  |
